Results as given in US12577529B2, “Methods for producing neural cells” (QUIVER HOLDINGS INC., priority 2021, dated 2026).

What was measured:
[1] = test system: NGN2 neurons (human iPS cell-derived excitatory neurons); assay: Optopatch excitability assay in NGN2 neurons; assay type: cell-based
Description: To characterize the intrinsic excitability activity of human iPS cell-derived excitatory neurons with the Optopatch platform the two iPS cell lines, “11a” and “20b”, from Example 1 were used. These two iPS cell lines were derived from two neurologically healthy male subjects. The 11a and 20b iPS cells are converted into excitatory neurons using a transcriptional programming approach whereby the pro-neuronal transcription factor NEUROGENIN2 (NGN2) is overexpressed using doxycycline responsive lentiviral constructs as described in Example 1. This process drives the rapid conversion of iPS cells into neurons that resemble cortical excitatory neurons.
The resulting neurons are cryopreserved and subsequently thawed.
The thawed cells are co-cultured with primary rodent glia to facilitate neuronal electrophysiological maturation. To enable Optopatch measurements, the cells are transduced with lentiviral constructs expressing Optopatch components driven by the neuronal excitatory promoter CAMK2A and signals are recorded from the cells 2 weeks later. At the time of Optopatch measurements, the NGN2 excitatory neuron are homogeneous and electrophysiologically active, yielding highly stereotyped and reproducible data across cells, dishes, differentiation rounds and cell lines.
Optopatch measurements are carried out in a custom-built ultra-widefield fluorescence microscope, as described herein. Using this platform, intrinsic excitability properties are recorded for 11a and 20b NGN2 neuronal cultures at DIV25 in the presence of synaptic blockers NBQX, D-AP5 and Gabazine to block AMPA, NMDA and GABA currents, respectively. A custom blue light stimulus protocol of three 500 ms blue light steps of increasing intensity (1, 15 and 75 mW/cm^2) followed by two 2 second ramps of linearly increasing intensity (0.5-10 mW/cm^2 and 0.5-110 mW/cm^2) is used to elicit a range of activity from individual neurons. ˜50 to 100 neurons are simultaneously stimulated and recorded in a single field of view.
High signal-to-noise ratio (SNR) fluorescence-time traces are generated, and action potentials can be detected with high fidelity. Individual action potentials are detected for each of the hundreds of neurons and recorded with Optopatch and plotted on a spike raster plot, where each row represents a single neuron, and each dot represents a detected spike. While individual neurons show a diversity of spiking behavior throughout the stimulus protocol, the average firing rate of the population is remarkably similar for both cell lines.
The sensitivity of an excitability assay for detecting pharmacological modulation in NGN2 neurons using the well-characterized compound quinidine, which is reported to increase spike width and reduce spike activity is tested. […] These changes can be observed in the individual traces at 10 μM and 30 μM quinidine.
Additional quantification of both the response to quinidine and retigabine in is determined using an Optopatch excitability assay. Quinidine has been reported to block several voltage-, Na^+ and Ca^++ gated potassium channels (KNa1.1, KCa5.1, K2P16.1, Kv1.5, Kv1.7, Kv10.1, Kv10.2), including two-pore forming channels as well as voltage gated Na^+ channels.

Kv7.2 = Kv7.2 (Homo sapiens, UniProt O43526); settings: read-out: Kv7.2 EC50; cited from earlier work
Chain of Kv7.2 (O43526 whole entry): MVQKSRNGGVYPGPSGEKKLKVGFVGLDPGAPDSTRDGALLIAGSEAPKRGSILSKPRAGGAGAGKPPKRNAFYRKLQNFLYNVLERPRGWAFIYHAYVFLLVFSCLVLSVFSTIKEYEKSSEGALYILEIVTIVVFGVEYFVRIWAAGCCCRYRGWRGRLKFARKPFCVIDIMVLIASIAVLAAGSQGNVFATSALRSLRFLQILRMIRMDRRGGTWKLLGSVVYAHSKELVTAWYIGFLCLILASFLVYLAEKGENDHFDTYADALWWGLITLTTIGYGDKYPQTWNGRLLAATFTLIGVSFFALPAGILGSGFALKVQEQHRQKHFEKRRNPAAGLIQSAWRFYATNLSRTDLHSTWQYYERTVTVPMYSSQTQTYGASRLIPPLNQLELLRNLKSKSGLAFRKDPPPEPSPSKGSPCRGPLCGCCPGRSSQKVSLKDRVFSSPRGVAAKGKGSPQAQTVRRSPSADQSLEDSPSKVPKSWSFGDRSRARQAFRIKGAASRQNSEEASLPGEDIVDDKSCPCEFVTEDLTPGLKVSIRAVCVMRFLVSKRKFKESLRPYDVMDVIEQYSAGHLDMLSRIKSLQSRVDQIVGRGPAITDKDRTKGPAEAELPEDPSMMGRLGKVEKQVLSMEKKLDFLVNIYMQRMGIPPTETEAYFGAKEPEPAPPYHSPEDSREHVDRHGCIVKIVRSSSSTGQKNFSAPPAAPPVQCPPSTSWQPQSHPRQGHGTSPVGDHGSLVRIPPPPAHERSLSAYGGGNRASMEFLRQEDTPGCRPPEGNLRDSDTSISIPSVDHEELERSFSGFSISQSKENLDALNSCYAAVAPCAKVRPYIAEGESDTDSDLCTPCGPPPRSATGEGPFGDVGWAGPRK

[2] = maximum concentration tested (30 μM)

C=C[C@H]1C[N@@]2CC[C@H]1C[C@@H]2[C@@H](O)c1ccnc2ccc(OC)cc12 [quinidine]
changes to spike waveform and firing rate ([1]; acute addition, observed in individual traces at 10 μM and 30 μM): dramatic changes to both the spike waveform and firing rate
broadening of the spikes ([1]; concentration dependent): concentration dependent broadening of the spikes
mean firing rate (spike rate) versus vehicle ([1]; different concentrations, with increased blue light stimulus): dramatic reduction in spike rate
spike rate ([1]; higher stimulation intensities (15 and 75 mW/cm^2)): concentration dependent reduction in the spike rate
magnitude of the AhP depth (measured from the baseline fluorescence before the action potential) [1, 2]: decreases
spike rise time (measured from start to peak of the action potential) [1, 2]: increases
spike width (measured from the base of the action potential) [1, 2]: increases
time to the maximum of the after hyperpolarization (AhP) depth [1, 2]: increases

CCOC(=O)Nc1ccc(NCc2ccc(F)cc2)cc1N [retigabine]
EC50 (Kv7.2): 2500 nM
